Here are results for 8 molecules from US6355681B2, “Glycine substitutes and precursors for treating a psychosis” (Glytech, Inc., priority 1995, dated 2002).

Read-outs that look alike come from different tables or passages of the source.

Test [1] can be described thus: Double blind, placebo-controlled crossover study of D-cycloserine in schizophrenia (PANSS). The class given is in vivo, human. The following applies: D-cycloserine 50 mg/day, 6 weeks.
In test [2] the target is T1, GLYT1-mediated synaptosomal glycine transport (Rattus norvegicus, UniProt P28572).
T1 construct: Synaptosomal P2 fractions were prepared from cerebral cortex+hippocampus of Sprague-Dawley rats; from tissue; host or cells: rat cerebral cortex + hippocampus, P2 synaptosomal fraction
T1 sequence (P28572 1-638): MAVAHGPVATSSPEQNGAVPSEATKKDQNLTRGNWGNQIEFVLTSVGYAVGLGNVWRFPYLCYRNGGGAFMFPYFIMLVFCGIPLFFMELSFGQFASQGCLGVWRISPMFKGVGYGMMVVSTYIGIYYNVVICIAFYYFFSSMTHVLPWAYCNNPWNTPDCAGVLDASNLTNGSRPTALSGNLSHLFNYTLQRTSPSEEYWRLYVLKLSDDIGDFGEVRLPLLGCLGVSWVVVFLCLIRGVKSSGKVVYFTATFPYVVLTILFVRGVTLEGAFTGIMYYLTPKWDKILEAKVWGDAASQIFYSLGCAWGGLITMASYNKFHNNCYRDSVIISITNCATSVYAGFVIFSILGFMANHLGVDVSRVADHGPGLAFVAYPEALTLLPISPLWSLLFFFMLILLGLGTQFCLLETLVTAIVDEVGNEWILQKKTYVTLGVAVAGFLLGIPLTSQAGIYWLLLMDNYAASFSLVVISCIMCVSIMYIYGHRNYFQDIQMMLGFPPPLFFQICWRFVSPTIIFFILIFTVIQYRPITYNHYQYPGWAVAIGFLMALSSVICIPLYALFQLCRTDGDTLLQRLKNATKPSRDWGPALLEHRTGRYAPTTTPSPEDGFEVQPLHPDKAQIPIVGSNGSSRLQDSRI
Description: Inhibition of [3H]glycine uptake in P2 synaptosomal fractions. The class given is biochemical, Sprague-Dawley rats. The following applies: 100 μg/ml. The procedure: Synaptosomal P2 fractions were prepared from cerebral cortex+hippocampus of Sprague-Dawley rats (200-250 g). Brain tissue was homogenized in 0.32 M sucrose in Tris-HCl buffer (pH 7.4), and centrifuged at 1,000×g for 10 min at 4° C. in a Sorvall 5C centrifuge. The supernatant was then centrifuged at 14,000×g for 10 min and the pellet resuspended in artificial CSF having the following composition (mM): NaCl, 125; KCl, 3; MgSO4, 1.2; CaCl2, 1.2; NaH2PO4, 1; NaHCO3, 22; glucose, 10. Homogenate was aerated with 95% O2/5% CO2 until use. 1 ml aliquots of homogenate were preincubated with specific concentrations of glycineamide derivatives, following which incubation was initiated by the addition of 10 μl of 10 μM [^3H]glycine (DuPont/NEN or Sigma, spec. act.≈45 Ci/mmol) to obtain a final concentration of 100 nM. Nonspecific binding was determined in the presence of 10 mM sarcosine. Following 5 min, incubation was terminated by filtration under reduced pressure using a Brandel 24-well cell harvester and Whatman GF-B filters. Radioactivity was determined by scintillation counter with approximate efficiency of 50%.

Test [3] has as its system PCP-induced hyperactivity. Description: Inhibition of PCP-induced locomotor hyperactivity. The class given is in vivo, BALB/c mice. The following applies: for inhibition of PCP-induced hyperactivity: 100 mg/kg i.p. pretreatment, summed activity over 90 min. Here is the method:
(§1) Behavioral studies were performed using BALB/c mice (25 g) of either sex. Rodent activity was monitored using a photocell-based activity meter (Columbus Instruments Auto-Track System, Columbus, Ohio). Animals were placed in test cages and allowed to accommodate overnight. […] 30 min. after pretreatment, animals were injected with either PCP (5 mg/kg i.p.) or amphetamine (5 mg/kg s.c.). Activity was then monitored for an additional 90 minutes. For statistical analyses, summed activity over the 90 min. following PCP/amphetamine injection was used as a measure of drug-induced hyperactivity.

For test [4], the system named is amphetamine-induced hyperactivity. Description: Effect on amphetamine-induced locomotor hyperactivity. The class given is in vivo, BALB/c mice. The following applies: GDA 50 mg/kg i.p.; amphetamine 5 mg/kg. The procedure: as §1
In test [5] the test system is PCP-induced hyperactivity. The note with it: cited from earlier work.

For `N[C@@H]1CONC1=O` [D-cycloserine], in test [1], the “change in general psychopathology scores (PANSS)” value is given as “did not change significantly”, the “change in positive symptoms (PANSS)” value is given as “did not change significantly” and the “mean decrease in negative symptoms” value was found to be 9.2%. Further, the “reduction in negative symptoms (PANSS)” value in test [1] (mean±SD) came to 3.6±3.7 point.
Consider `CCCCCCCCNC(=O)CN` [G8A, glycyloctylamide], for which, in test [2], the “effect on GLYT1-mediated transport at single fixed concentration” value (shortened to “effect on GLYT1-mediated transport”) is recorded as “no significant effect”.
Turning to `CCCCCCCCCCNC(=O)CN` [G10A, glycyldecylamide], in test [3] (PCP 5 mg/kg i.p.), the “inhibition of PCP-induced hyperactivity” value is given as “Significant reductions”. Moreover, the “effect on GLYT1-mediated transport” value in test [2] is recorded as “significant inhibition”.
`CCCCCCCCCCCNC(=O)CN` [G11A, glycylundecylamide]: the “effect on GLYT1-mediated transport” value in test [2] is reported as “significant inhibition”.
Turning to `CCCCCCCCCCCCCNC(=O)CN` [G13A, glycyltriscadecylamide], the “inhibition of PCP-induced hyperactivity” value in test [3] (PCP 5 mg/kg i.p.) was “Significant reductions”. Also, in test [2], the “effect on GLYT1-mediated transport” value is “significant inhibition”.
For the molecule `CCCCCCCCCCCCNC(=O)CN` [GDA, glycyldodecylamide], the “PCP-induced hyperactivity, % of control (PCP alone) levels” value in test [3] (50 mg/kg, PCP 5 mg/kg i.p.) is recorded as “below 70 % of control”; in test [3] (100 mg/kg, PCP 5 mg/kg i.p.) it was “below 50 % of control”. Also, the “inhibition of PCP-induced hyperactivity” value in test [3] (PCP 5 mg/kg i.p.) is reported as “Significant reductions”. The “effect on hyperactivity induced by PCP” value in test [3] (GDA 50 mg/kg i.p., PCP 5 mg/kg i.p.) is listed as “significantly reduced”. Besides, the “effect on basal activity” value in test [3] (GDA pretreatment 50 mg/kg i.p.) was “did not significantly affect”. In addition, in test [4], the “effect on hyperactivity induced by amphetamine” value was “not significantly altered”. In test [2], the “effect on GLYT1-mediated transport” value is “significant inhibition”. For the same molecule, the “potency in reversing PCP-induced hyperactivity relative to glycine (Toth et al., 1986)” value in test [5] (early preclinical studies) is listed as “significantly more potent than glycine”. The “doses inhibiting PCP-induced hyperactivity (prior studies)” value in test [5] (i.p., prior studies) is 50 to 200 mg/kg.
On to `NCC(=O)O` [glycine], for which, for the setting “beginning to end of glycine treatment”, the “change in positive symptoms (PANSS)” value is given as “did not change significantly”. Under “end of glycine treatment (beginning 25.7±7.0), mean±SD”, the “positive symptoms score at end of treatment” value is 22.0±4.0 points. In addition, where the note is “end of glycine treatment (from 56.0±19.4), mean±SD”, the “general psychopathology score at end of treatment” value is reported as 43.0±13.8 points. Also, under “glycine 0.8 g/kg/day, 6 weeks”, the “decrease in general psychopathology symptoms” value amounted to 23.2% and the “mean reduction in negative symptoms” value was 28.5%. For the same molecule, the “reduction in negative symptoms (PANSS)” value (glycine 0.8 g/kg/day, 6 weeks, 7 neuroleptic-resistant schizophrenia subjects, mean±SD) turned out to be 11.3±3.6 point. Also, the “change in general psychopathology (PANSS)” value (glycine 0.8 g/kg/day, 6 weeks, mean±SD) is 13.0±7.7 point. Besides, the “degree of reduction in negative symptoms relative to D-cycloserine treatment” value (same subjects, change scores compared across the two trials) is 3 fold.
Consider glycylhexylamide [G6A], for which the “inhibition of PCP-induced hyperactivity” value in test [3] (PCP 5 mg/kg i.p.) is recorded as “did not significantly inhibit”. Also, in test [2], the “effect on GLYT1-mediated transport” value was “significant potentiation”. The “inhibition of PCP-induced hyperactivity (early study, Toth et al., 1986)” value in test [5] (literature) is listed as “not to significantly inhibit”.
